Counter-ions that a name gives are not always drawn. Like-named read-outs stand apart in the source and are kept apart here.
How the values were obtained:
[1] = target: GST-tagged recombinant full-length human PIM-2 (Homo sapiens (Human), UniProt Q9P1W9); experiment: PIM-2 Enzyme Assay; conditions: read-out: PIM-2 IC50; 4 μM ATP, […] PIM-2
Protocol: (§4) The amount of radiolabeled product is then measured by liquid scintillation counting. The final buffer conditions were as follows: 20 mM K^+MOPS, pH 7.4, 10 mM MgCl2, 0.005% Tween-20, 1 mM DTT. […] Incubations were carried out for 60 min at 22° C. and quenched with 75 μL of 200 mM H3PO4, filtered through a Whatman P81 plate and washed (1×200 μL and 5×100 μL ) with 200 mM H3PO4. Liquid scintillation cocktail (50 μL ) was then added per well, and the plate was counted for 30 s/well using a TopCount NXT.
(§5) One-μL aliquots of these were then transferred to the assay mixtures above to give a final concentration of DMSO of 2%. […] For each plate, percent of control (POC) values were calculated for each well. IC50's were estimated from the POC's using a standard 4-parameter logistic model. The IC50 is defined as the concentration of inhibitor at which the POC equals 50 for the fitted curve.

[2] = test system: BaF3 TEL-JAK2 (Mouse pro-B-cell transformed with TEL-JAK2 fusion); experiment: Cellular Proliferation Assay, cell line G; type: cell-based; conditions: BaF3 TEL-JAK2, 72 hours, CelltiterBlue, read-out: Cell Line G antiproliferative IC50
Protocol: (§1) The assay for determination of the antiproliferative activity of multiple Pim inhibitors in the JAK2-driven cell lines was conducted as follows. Cells were plated out to 96-well plates at an initial density of 10,000 cells/well in 95 pt. Compounds were prepared at […] in DMSO by conducting 3-fold serial dilutions to give a 10-point dosing curve having a high dose of 1000 μM. Aliquots (5 μt) of these dilutions were then transferred to the appropriate wells of the 96-well plates containing cells to yield a final DMSO concentration of 0.5%. The cells were then incubated with compound for 72 hours at 37° C., 5% CO2. CelltiterBlue reagent (Promega, Catalog #: G8080) was then added (20 μL/well) and incubated at 37° C., 5% CO2 for 1-8 hours depending on the cell line being analyzed. The plate was then quantified employing a fluorescence plate reader (Model: Gemini [Molecular Devices]; Settings: 560 nm (Ex)/590 nm (Em) 570 nm (cut-off) [CellTiter Blue Assay].
(§2) The values for each well were then converted to a percent of untreated control (POC). These POC values were then plotted as a function of compound concentration. A 4-parameter curve-fit analysis was performed for each compound dilution and an IC50 value was calculated from this curve.
(§3) Cell lines • A: PC3 (Androgen independent prostate cancer) • B: K562 (Ph+chronic myelogenous leukemia) • C: MV4-11 (Acute myelogenous leukemia) • D: BxPC3 (Pancreatic Cancer) • E: HepG2 (Hepatocellular Carcinoma) • F: BaF3 (Mouse pro-B-cell line) • G: BaF3 TEL-JAK2 (Mouse pro-B-cell transformed with TEL-JAK2 fusion) • H: BaF2 BCR-Ab1 (Mouse pro-B-cell transformed with BCR-Ab1 fusion)

[3] = target: PIM-1 (Homo sapiens (Human), UniProt P11309); experiment: PIM-1 Enzyme Assay; type: biochemical
PIM-1, sequence (P11309 whole entry, species assumed): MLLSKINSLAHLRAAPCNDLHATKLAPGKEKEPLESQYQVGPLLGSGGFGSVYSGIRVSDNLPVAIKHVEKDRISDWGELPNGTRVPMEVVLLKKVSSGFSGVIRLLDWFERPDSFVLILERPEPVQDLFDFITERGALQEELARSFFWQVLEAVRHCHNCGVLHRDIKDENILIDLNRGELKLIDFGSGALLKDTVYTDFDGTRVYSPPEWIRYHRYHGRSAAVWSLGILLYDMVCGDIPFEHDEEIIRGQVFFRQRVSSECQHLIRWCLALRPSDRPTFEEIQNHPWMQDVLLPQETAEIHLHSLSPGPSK
In short: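 Radiometric kinase assay in 20 mM K+MOPS pH 7.4, 10 mM MgCl2, 0.005% Tween-20, 1 mM DTT, 2% DMSO final; 60 min at 22° C, stopped with H3PO4, product captured on P81 filter and counted by scintillation. IC50 from 4-parameter logistic fit of percent of control.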

[4] = test system: MV4-11 (Acute myelogenous leukemia); experiment: Cellular Proliferation Assay, cell line C; type: cell-based; conditions: Homo sapiens; MV4-11, 72 hours, CelltiterBlue; read-out: Cell Line C antiproliferative IC50
Protocol: as §1
The values for each well were then converted to a percent of untreated control (POC). These POC values were then plotted as a function of compound concentration. A 4-parameter curve-fit analysis was performed for each compound dilution and an IC50 value was calculated from this curve. […]

[5] = target: recombinant rat PIM-3 (Rattus norvegicus (Rat), UniProt O70444); experiment: PIM-3 Enzyme Assay; conditions: read-out: PIM-3 IC50; 30 μM ATP, 0.5 nM PIM-3
Protocol: as §4, §5

[6] = test system: CD4+ T cells; experiment: T Cell in vitro Functional Assay (B): IL-2 production; type: cell-based; conditions: Mus musculus, anti-CD3/anti-CD28, 40 hours, ELISA
Protocol: The in vitro assays to assess the effects of the compounds of Examples 16, 18 and 26 on T cells were conducted as described in assays A, B, C and D below. CD4+ T cells were isolated from red blood cell-depleted splenocytes of C57B1/6J mice (Jackson Laboratories, catalog #000664) using CD4+ T cell isolation kit (Miltenyi, catalog #130-090-860).
In assay (A), purified CD4+ T cells were plated in 96 well plates at 90000 cells/well in 90 μL. A dilution series of the compounds of Examples 16, 18 and 26 were prepared at 100× the final concentration in DMSO and then diluted 10-fold into complete media (10× stocks). 10 μL of 10×compound stocks were added to appropriate wells of 96 well plates containing cells and incubated for 1 hour at 37° C., 5% CO2. The cell/compound mixtures were then transferred to a 96 well plate coated with anti-CD3 mAb (1 μg/mL; BD Pharmingen, catalog #553057) and soluble anti-CD28 mAb (1 μg/mL; BD Pharmingen, catalog #553294) was added. Plates were cultured at 37° C., 5% CO2 for 40 hours. 20 μL of the culture were removed for determination of proliferation using the CellTitre-Glo™ luminescent assay (Promega, Catalog #G7571) according to the manufacturer's protocol. The plate was quantified on a Packard TopCount instrument using luminescence protocol and data was analyzed using Prism software.
In assay (B), purified CD4+ cells were treated with compound and stimulated as described for assay (A). After 40 hours, supernatants were assayed for IL-2 using R&D duo set ELISA kits (catalog #DY402). ELISA plates were quantified relative to a standard curve using Molecular Devices Versamax Reader at […] and Softmax Pro software.
For each of assays A, B, C and D, the values for each well were converted to a percent of vehicle-treated (DMSO) control (POC). These POC values were plotted as a function of compound concentration and an IC50 calculated using a 4-parameter curve-fit analysis program.

[7] = test system: HepG2 (Hepatocellular Carcinoma); experiment: Cellular Proliferation Assay, cell line E; type: cell-based; conditions: Homo sapiens; HepG2, 72 hours, CelltiterBlue; read-out: Cell Line E antiproliferative IC50
Protocol: as §1, §2, §3

[8] = test system: BxPC3 (Pancreatic Cancer); experiment: Cellular Proliferation Assay, cell line D; type: cell-based; conditions: Homo sapiens, BXPC-3; BxPC3, 72 hours, CelltiterBlue; read-out: Cell Line D antiproliferative IC50
Protocol: as §1, §2, §3

GST-tagged recombinant full-length human PIM-2, sequence (Q9P1W9 whole entry, the tested form may be a part): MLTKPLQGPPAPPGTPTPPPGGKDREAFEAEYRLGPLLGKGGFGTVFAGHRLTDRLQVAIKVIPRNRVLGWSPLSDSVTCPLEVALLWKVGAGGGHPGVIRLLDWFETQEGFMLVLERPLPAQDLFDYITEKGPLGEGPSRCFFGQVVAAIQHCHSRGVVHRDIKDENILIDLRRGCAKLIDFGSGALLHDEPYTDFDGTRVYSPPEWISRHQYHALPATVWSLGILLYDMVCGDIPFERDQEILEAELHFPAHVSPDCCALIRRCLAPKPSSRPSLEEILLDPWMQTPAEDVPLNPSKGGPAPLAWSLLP

| Compound | IC50 [1] | IC50 [2] | IC50 [3] | IC50 [4] | IC50 [5] | IC50 [6] | IC50 ([3]; 35 μM ATP, 0.25 nM PIM-1) | IC50 [7] | IC50 [8] |
| --- | --- | --- | --- | --- | --- | --- | --- | --- | --- |
| F[C@@H]1CNCCC1Oc1cccc2ccc(-c3nnc4ccccn34)nc12 (stereo in doubt) [Example 26, 2-([1,2,4]triazolo[4,3-a]pyridin-3-yl)-8-((cis)-3-fluoropiperidin-4-yloxy)quinoline dihydrochloride] | 137 nM | < 2000 nM | 3 nM | < 2000 nM | 9 nM | ≤ 5000 nM | – | – | – |
| c1cc(OCC2CCCNC2)c2nc(-c3nnc4ccccn34)ccc2c1 (centres unmarked) [Example 16, 2-([1,2,4]Triazolo[4,3-a]pyridin-3-yl)-8-(piperidin-3-ylmethoxy)quinoline] | 169 nM | < 2000 nM | – | – | 4 nM | ≤ 1000 nM | 1 nM | > 10 µM | > 10 µM |
| CC(C)(CN)COc1cccc2ccc(-c3nnc4ccccn34)nc12 [Example 18, 3-(2-([1,2,4]Triazolo[4,3-a]pyridin-3-yl)quinolin-8-yloxy)-2,2-dimethylpropan-1-amine] | 49 nM | < 2000 nM | – | < 2000 nM | 2 nM | ≤ 1000 nM | – | < 10 µM | < 10 µM |

Reference: patent publication US8575145B2, “Triazolopyridine compounds as PIM kinase inhibitors” (Array BioPharma Inc., priority 2008, dated 2013)
